Assay results from patent publication US7056491B2, “Monoterpenes and sesquiterpenes as chemotherapeutic and radiation sensitizers and immunomodulators” (Wisconsin Alumni Research Foundation, priority 2000, dated 2006).

Assays:
[1] = system: Fas receptor; experiment: Fas receptor (CD95) staining by flow cytometry; format: cell-based, human; details: 0.1 mM–1 mM POH 72 hours; same cell lines except U87MG
Method: (§1) The cells were harvested using cell dissociation solution, and the resulting cell pellet was washed and incubated with biotinylated anti-human antibody, which served as a control to eliminate non-specific binding. Following the primary antibody incubation the cells were washed and subsequently stained with secondary antibody conjugated to phycoerythrin (PE) (PharMingen) and antibody to CD95 directly conjugated to allophycocyanin (APC). The stained cells were analyzed using a Beckton-Dickinson FACStar plus and the results were acquired using CELLquest software.
Subconfluent cultures of the indicated glioma (T98G, U251, U353, U87MG), prostate (DU145, PC3), colon (DLD-1) and melanoma (Mel5) cell lines were treated with varying concentrations of POH (0.1 mM–1 mM POH) dissolved in medium for 72 hours. At the end of the incubation, the cells were harvested using cell dissociation solution, and the resulting cell pellet was washed and incubated with biotinylated anti-human antibody to the FasL (PharMingen) or with an isotype matched anti-human antibody, which served as a control to eliminate non-specific binding. […] The stained cells were analyzed using a Beckton-Dickinson FACStar plus and the results were acquired using CELLquest. […]

[2] = system: MIAPACA pancreatic cancer cells; experiment: Clonogenic survival assay, POH with or without radiation, MIAPACA; format: cell-based, human
Method: (§2) Table 1 summarizing data from different cell lines treated with radiation, radiation plus POH, and POH alone. Subconfluent cultures of human glioma (T98G, M059K, U251), prostate (DU145, PC3), colon (DLD-1, HT29) and pancreatic (MIAPACA) cancer cell lines were treated with 0.1–0.5 mM of POH for 72 hours and subsequently to increasing doses of radiation from 0.1 Gy to 8.5 Gy. Control cells were treated with medium alone. The cells were harvested and an optimum number of cells were allowed to grow for 14 days. The resulting colonies were stained and counted. Each graphed point represents mean values ± SE values of triplicate dishes. Percentage survival was determined as the ratio of plating efficiencies for each irradiated group to that of the unirradiated control.

[3] = system: 21–26 kD proteins, including small GTP-binding proteins; details: dose dependent, distal to HMG-CoA reductase; cited from earlier work
[4] = system: Fas Ligand; experiment: Membrane bound Fas ligand staining by flow cytometry; format: cell-based, human
Method: Referring to FIG. 17, glioma cell lines (T98G, U251, U87 and U353) were treated with 0.3 mM perillyl alcohol (POH) for 72 hours and the cells were harvested using cell dissociation solution. The resulting cell pellet was stained with biotinylated antibody specific to the human Fas-Ligand (Pharmingen), or IgG1 k isotype control for 45 minutes at 4° C. The cells were washed and incubated with streptavidin conjugated phycoerythrin washed and analyzed by flow cytometry.
as §1
Subconfluent cultures of the indicated glioma (T98G, U251, U353, U87MG), prostate (DU145, PC3), colon (DLD-1) and melanoma (Mel5) cell lines were treated with varying concentrations of POH (0.1 mM–1 mM POH) dissolved in medium for 72 hours. […] The stained cells were analyzed using a Beckton-Dickinson FACStar plus and the results were acquired using CELLquest. […]

[5] = system: pancreatic carcinoma; details: POH-fed hamsters; control animals showed tumor growth; cited from earlier work
[6] = system: glioma, prostate, colon and melanoma cell lines; experiment: Apoptosis by flow cytometry of propidium iodide stained cells (sub G0/G1 peak); format: cell-based, human; details: 72 hours
Source text: In the present study we evaluated the effect of POH treatment on a panel of human glioma (T98G, MO59K, U-87, U-373, U-251), prostate cancer cell lines (PC3 and DU145), colon (DLD-1, HT29), melanoma (Mel5, M21).

[7] = system: U251 cells; experiment: Clonogenic survival assay, POH with or without radiation, U251; format: cell-based, human
Method: Subconfluent cultures of human glioma cell line U251 were treated with 0.1–0.5 mM of POH for 72 hours and subsequently to increasing doses of radiation from 0.1 Gy to 8.5 Gy. Control cells were treated with the indicated doses of radiation alone. The cells were harvested and an optimum number of cells were allowed to grow for 14 days. The resulting colonies were stained and counted. Each graphed point represents mean values ± SE values of triplicate dishes.
as §2

[8] = system: T98G cells; experiment: Clonogenic survival, POH pretreatment then doxorubicin, T98G; format: cell-based, human; details: POH 0.1 mM–0.5 mM 48 hours then doxorubicin 0.01 uM–0.1 uM 48 hours
Method: Referring to FIG. 29, subconfluent cells of T98G cells were treated with varying concentrations of perillyl alcohol (0.1 mM–0.5 mM) for 48 hours and subsequently treated with the indicated dose of doxorubicin (0.01 uM–0.1 uM) for 48 hours. At the end of the treatment, POH-pretreated and untreated cells in the presence and absence of doxorubicin, were harvested, washed with PBS, plated at the desired cell number and incubated for two weeks. The colonies were stained with crystal violet and quantitated. Survival was determined as the ratio of plating efficiencies for each irradiated group to that of the untreated control. […] Doxorubicin at concentrations over 0.1 uM appeared to be toxic to the cells.

[9] = system: Fas-sensitive Jurkat cell line; experiment: Cell death of Jurkat cells incubated with POH-treated T98G; format: cell-based; details: T98G treated 0.1 mM–0.5 mM 48 hours, then Jurkat 48 hours
Method: Referring to FIG. 27, subconfluent cells of T98G cells were treated with varying concentrations of perillyl alcohol (0.1 mM–0.5 mM) for 48 hours. At the end of the incubation the media was changed, cells from a Fas-sensitive Jurkat cell line were added to the plate, and the incubation was continued further for 48 hours. At the end of the incubation the target cells (Jurkat) were harvested, washed and the cell viability was assessed.

[10] = system: glioma and prostate cancer cell lines; experiment: Apoptosis by dual colored (PI and Annexin V) flow cytometry; format: cell-based, human; details: 1 mM POH, 72 hours
Method: Glioma (T98G, U251, U353, U87 and MO59K) and prostate (DU145, PC3) cell lines were treated with or without 1 mM perillyl alcohol (POH) for 72 hours. The cells were harvested by trypsinization washed with PBS and subsequently staimed with antibody to annexin V conjugated to FITC and with PI (10 μg/ml). Viable (annexin V^−/PI^−) pre-apoptotic (annexin V^+/PI^−), apoptotic (annexin V^+/PI^+), and the residual damaged (annexin V^−/PI^+) cells were quantitated using this protocol.

Compound: C=C(C)[C@@H]1CC=C(CO)CC1 [POH, Perillyl alcohol]
- levels of the Fas receptor [1]: did not alter
- % SURVIVAL ([2]; 0.1 mM POH 72 h, no radiation): 1.503 ± 0.05%
- % SURVIVAL ([2]; 0.1 mM POH + 5.5 Gy): 0.154 ± 0.018%
- % SURVIVAL ([2]; 0.3 mM POH 72 h, no radiation): 0.750 ± 0.05%
- % SURVIVAL ([2]; 0.3 mM POH + 5.5 Gy): 0.059 ± 0.008%
- % SURVIVAL ([2]; 0.5 mM POH 72 h, no radiation): 0.450 ± 0.07%
- % SURVIVAL ([2]; 0.5 mM POH + 5.5 Gy): 0.015 ± 0.0027%
- isoprenylation of 21–26 kD proteins [3]: inhibit isoprenylation
- Fas Ligand in glioma, prostate, colon and melanoma cell lines ([4]; 0.1 mM–1 mM POH 72 hours, more pronounced at lower concentrations): upregulation of the Fas Ligand
- membrane bound Fas ligand on glioma cell lines ([4]; T98G, U251, U87, U353, 0.3 mM POH 72 hours): upregulation
- antitumor effect in pancreatic carcinoma models [5]: either regression or no growth of the tumors
- effect of higher concentrations on tumor cell lines ([6]; 1 mM POH): cell death via apoptosis
- toxicity to tumor cell lines ([6]; clinically relevant doses 0.1 mM–0.5 mM): relatively non-toxic
- % SURVIVAL ([7]; 0.1 mM POH 72 h, no radiation): 1.066 ± 0.200%
- % SURVIVAL ([7]; 0.1 mM POH + 5.5 Gy): 0.253 ± 0.004%
- % SURVIVAL ([7]; 0.3 mM POH 72 h, no radiation): 0.397 ± 0.059%
- % SURVIVAL ([7]; 0.3 mM POH + 5.5 Gy): 0.046 ± 0.005%
- % SURVIVAL ([7]; 0.5 mM POH 72 h, no radiation): 0.257 ± 0.010%
- % SURVIVAL ([7]; 0.5 mM POH + 5.5 Gy): 0.019 ± 0.001%
- sensitization to doxorubicin-induced cell death [8]: dose-dependent sensitization
- function of Fas Ligand on treated T98G towards Jurkat cells [9]: brought about cell death
- early and late apoptotic cells (annexin V/PI) [10]: increase in the percentage of early as well as late apoptotic cells
